For orientation: Kd means the concentration at which binding is half-saturated.

One assay concerns the target T1, SapC (saposin C) (Homo sapiens, UniProt P07602).
T1 sequence (P07602 311-390 limits assumed): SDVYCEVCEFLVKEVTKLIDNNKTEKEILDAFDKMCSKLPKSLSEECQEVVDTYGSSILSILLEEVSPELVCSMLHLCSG
Put plainly: microscale thermophoresis. The format is binding. On the technique in general: Microscale thermophoresis detects binding through changes in fluorescence in a small temperature gradient.

The target of assay [1] is T2, acid β-glucosidase (GCase), Velaglucerase alfa (human, UniProt P04062 40-536, mannosyl-terminated oligosaccharide chains).
T2 sequence (looked up): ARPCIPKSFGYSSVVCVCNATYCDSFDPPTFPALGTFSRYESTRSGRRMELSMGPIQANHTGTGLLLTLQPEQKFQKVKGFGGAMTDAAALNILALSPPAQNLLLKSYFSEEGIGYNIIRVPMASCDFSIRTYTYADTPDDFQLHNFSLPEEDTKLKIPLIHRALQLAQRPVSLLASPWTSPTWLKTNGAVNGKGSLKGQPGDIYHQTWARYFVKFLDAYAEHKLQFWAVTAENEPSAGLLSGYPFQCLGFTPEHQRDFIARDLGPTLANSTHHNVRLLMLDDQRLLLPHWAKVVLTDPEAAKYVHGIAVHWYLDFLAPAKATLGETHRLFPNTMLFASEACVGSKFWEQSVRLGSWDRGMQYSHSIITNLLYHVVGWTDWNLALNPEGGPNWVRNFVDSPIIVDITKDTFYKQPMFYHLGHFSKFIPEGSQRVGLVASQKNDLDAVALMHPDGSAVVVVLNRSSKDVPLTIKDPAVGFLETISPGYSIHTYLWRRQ
Put plainly: MST.

Take `CCCCCCCC/C=C\CCCCCCCC(=O)OC[C@H](COP(=O)(O)OC[C@H](N)C(=O)O)OC(=O)CCCCCCC/C=C\CCCCCCCC` [DOPS]: the Kd at SapC (saposin C) turned out to be 13.5 ± 1.65 nM.

B1: saposin C (SapC) (natural protein, UniProt P07602 311-390, looked up)
chain: T1 sequence (P07602 311-390 limits assumed)
On to B1, for which, in assay [1], the Kd was found to be 29.4 ± 1.91 nM.

The values are drawn from publication PMC7251241 (EBioMedicine, 2020).
